The molecules below were run against T1, Human CaV2.2 channels (Homo sapiens, UniProt Q00975) (assay: Fluorescent assay for CaV2.2 channels using potassium depolarization to induce channel opening (FLIPR, Fluo 4)). Conditions: 3 μM test compound; 30 mM KCl alternative assay buffer (inactivated channel state); HEK293 cells; read-out: %-Inhib (CaV2.2) @3 μM @30 mM KCl.
T1 construct: expressed in transfected cells; also stably expressing Kir2.3)
T1 sequence (Q00975 whole entry): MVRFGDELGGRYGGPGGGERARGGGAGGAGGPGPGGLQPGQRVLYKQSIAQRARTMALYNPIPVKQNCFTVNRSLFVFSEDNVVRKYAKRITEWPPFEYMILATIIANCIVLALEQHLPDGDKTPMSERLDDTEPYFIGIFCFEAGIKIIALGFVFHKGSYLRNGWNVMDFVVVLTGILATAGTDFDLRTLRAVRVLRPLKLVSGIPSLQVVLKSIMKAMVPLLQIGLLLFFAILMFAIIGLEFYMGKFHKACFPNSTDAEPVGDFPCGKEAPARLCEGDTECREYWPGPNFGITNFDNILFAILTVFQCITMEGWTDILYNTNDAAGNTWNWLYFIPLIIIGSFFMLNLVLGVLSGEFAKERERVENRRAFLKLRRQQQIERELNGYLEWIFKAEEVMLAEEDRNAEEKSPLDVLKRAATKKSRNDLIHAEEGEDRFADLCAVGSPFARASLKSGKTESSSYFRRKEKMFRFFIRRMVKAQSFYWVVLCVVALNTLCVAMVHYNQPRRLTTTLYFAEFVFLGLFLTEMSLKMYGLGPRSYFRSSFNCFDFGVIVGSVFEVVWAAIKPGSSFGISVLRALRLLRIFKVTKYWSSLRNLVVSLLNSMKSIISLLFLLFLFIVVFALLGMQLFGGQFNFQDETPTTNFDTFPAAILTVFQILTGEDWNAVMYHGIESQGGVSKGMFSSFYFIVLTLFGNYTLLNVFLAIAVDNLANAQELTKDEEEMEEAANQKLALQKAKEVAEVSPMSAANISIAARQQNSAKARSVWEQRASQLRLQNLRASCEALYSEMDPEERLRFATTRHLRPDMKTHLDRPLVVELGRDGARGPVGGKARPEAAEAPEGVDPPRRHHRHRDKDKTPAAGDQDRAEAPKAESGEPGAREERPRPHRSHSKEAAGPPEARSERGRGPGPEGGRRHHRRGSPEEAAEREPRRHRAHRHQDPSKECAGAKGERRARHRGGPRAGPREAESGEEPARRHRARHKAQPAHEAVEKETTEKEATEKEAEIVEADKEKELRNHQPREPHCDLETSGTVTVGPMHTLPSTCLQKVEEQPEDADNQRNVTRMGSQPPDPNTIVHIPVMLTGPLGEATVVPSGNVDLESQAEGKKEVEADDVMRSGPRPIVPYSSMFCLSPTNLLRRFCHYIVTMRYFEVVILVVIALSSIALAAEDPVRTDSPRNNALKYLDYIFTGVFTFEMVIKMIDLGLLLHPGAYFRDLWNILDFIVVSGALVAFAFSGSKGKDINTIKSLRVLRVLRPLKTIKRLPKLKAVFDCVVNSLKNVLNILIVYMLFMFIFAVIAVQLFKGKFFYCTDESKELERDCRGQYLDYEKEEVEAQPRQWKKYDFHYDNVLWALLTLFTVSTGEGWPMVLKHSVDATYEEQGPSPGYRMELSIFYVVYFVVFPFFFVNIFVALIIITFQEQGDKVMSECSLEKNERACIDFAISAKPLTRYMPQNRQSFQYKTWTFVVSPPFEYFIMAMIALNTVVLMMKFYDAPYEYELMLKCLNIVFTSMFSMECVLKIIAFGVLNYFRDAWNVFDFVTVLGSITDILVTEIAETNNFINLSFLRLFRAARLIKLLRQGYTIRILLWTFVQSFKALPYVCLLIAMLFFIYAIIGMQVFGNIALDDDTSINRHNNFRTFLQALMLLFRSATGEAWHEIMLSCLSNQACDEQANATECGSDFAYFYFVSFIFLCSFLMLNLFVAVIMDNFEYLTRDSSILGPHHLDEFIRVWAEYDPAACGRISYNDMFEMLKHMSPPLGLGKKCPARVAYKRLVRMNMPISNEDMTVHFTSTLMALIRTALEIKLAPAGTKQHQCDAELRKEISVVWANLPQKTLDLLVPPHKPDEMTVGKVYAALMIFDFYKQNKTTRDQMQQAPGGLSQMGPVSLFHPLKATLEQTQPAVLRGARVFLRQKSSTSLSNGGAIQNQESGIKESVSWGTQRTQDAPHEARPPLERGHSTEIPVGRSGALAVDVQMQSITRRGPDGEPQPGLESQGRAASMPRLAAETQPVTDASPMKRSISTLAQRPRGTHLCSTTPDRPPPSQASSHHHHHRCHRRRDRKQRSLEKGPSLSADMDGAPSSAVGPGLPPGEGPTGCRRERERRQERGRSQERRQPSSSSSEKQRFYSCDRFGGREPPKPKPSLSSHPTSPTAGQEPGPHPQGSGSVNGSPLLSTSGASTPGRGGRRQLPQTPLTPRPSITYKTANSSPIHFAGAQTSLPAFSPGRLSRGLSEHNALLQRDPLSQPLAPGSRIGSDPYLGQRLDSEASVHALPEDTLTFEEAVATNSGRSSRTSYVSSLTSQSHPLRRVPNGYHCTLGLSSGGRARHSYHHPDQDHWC
Format: cell-based
From the text: In the process, the Ca^2+ influx is quantified in the FLIPR assay with the aid of a Ca^2+-sensitive dye (type Fluo-4, Molecular Probes Europe BV, Leiden, the Netherlands) in a fluorescent imaging plate reader (FLIPR 3, Molecular Devices, Sunnyvale, USA), as described hereinafter.
2. Assay Descriptions and Biological Data: 2.1 Fluorescent Assay for CaV2.2 Channels Using Potassium Depolarization to Induce Channel Opening
Human CaV2.2 channels were stably expressed in HEK293 cells together with alpha2-delta and beta subunits of voltage gated calcium channels. In addition, an inwardly rectifying potassium channel (Kir2.3) was stably expressed in these cells to augment control of the cell membrane potential by the concentration of extracellular potassium ions. Raise of the extracellular potassium concentration leads to depolarization of the membrane potential and thus regulates the voltage dependent state of CaV2.2 channels. For preparation, cells were seeded in black poly-D-lysine coated 96-well plates (Becton Dickinson, Biocoat 4640) in 100 μL medium [500 mL DMEM/F-12 plus Glutamax (Invitrogen 31331-093) plus 5.5 mL MEM NEAA 100× (Invitrogen 11140-035) plus 50 mL FBS decomplemented (Invitrogen 10270-106) plus 200 μg/mL Geneticin (Invitrogen 10131-027) plus 50 μg/mL Hygromycin B (Invitrogen 10687-010) plus 2 μg/mL Blasticidin (anti-bl5b Invivo-Gen) plus 0.2 μg/mL Puromycin (A 11138-03)] at a cell density of 30.000 cells per well. Plates were incubated at 37° C. (5% CO2) for 20 to 23 h. On the day of experiment medium was discarded and cells were loaded with Fluo 4 by addition of 100 μL of basic assay buffer (10 mM HEPES, 1 mM KCl, 149 mM NaCl, 0.8 mM CaC2, 1.7 mM MgCl2, 10 mM Glucose, 0.1% BSA. pH 7.4) containing 2 μM Fluo 4 (Molecular Probes; F-14201), 0.01% pluronic acid (Molecular Probes; P-6866) and 2.5 mM probenecid (Molecular Probes; P36400). Cells were incubated in the dark at 25° C. for 60 min. Then dye containing buffer was discarded and 100 μL basic (1 mM KCl) or alternative (30 mM KCl) assay buffer was added. The alternative assay buffer contained altered concentrations of KCl (30 mM) and NaCl (120 mM) and was used in order to promote the inactivated channel state. After that 25 μL of basic or alternative assay buffer with or without test compound were added and cells were incubated again in the dark at 25° C. for 15 min. Fluorescence intensity was measured on a FLIPR 3 instrument (Molecular Devices Corp., Sunnyvale, Calif.) with excitation at 480 nm and emission at 535 nm. After continuously reading fluorescence for 30 sec, 50 μL of basic assay buffer containing 210 mM KCl (NaCl omitted) were added for depolarization. Peak fluorescent signal intensity was determined and the amplitude of the peak signal, normalized to base line, was used to measure channel inhibition by test compounds.
In the case of COc1cnc(-c2c(C)c(C(F)(F)F)n(Cc3ccccc3)c2C(=O)N(C)CC(C)(C)C)cn1 [Example 01, 1-benzyl-3-(5-methoxypyrazin-2-yl)-N,4-dimethyl-N-neopentyl-5-(trifluoromethyl)-1H-pyrrole-2-carboxamide], the inhibition at 3 µM is reported as 75 to 95%. COc1ccc(-c2c(C)c(C(F)(F)F)n(Cc3ccccc3)c2C(=O)N(C)CC(C)(C)C)cn1 [Example 02, 1-Benzyl-3-(6-methoxypyridin-3-yl)-N,4-dimethyl-N-neopentyl-5-(trifluoromethyl)-1H-pyrrole-2-carboxamide] gave an inhibition at 3 µM of 40 to 75%. Molecule Cc1c(-c2ccc(O)nc2)c(C(=O)N(C)CC(C)(C)C)n(Cc2ccccc2)c1C(F)(F)F [Example 03, 1-Benzyl-3-(6-hydroxypyridin-3-yl)-N,4-dimethyl-N-neopentyl-5-(trifluoromethyl)-1H-pyrrole-2-carboxamide] has an inhibition at 3 µM of 40 to 75%. Work on Cc1c(-c2cnn(C)c2)c(C(=O)N(C)CC(C)(C)C)n(Cc2ccccc2)c1C(F)(F)F [Example 04, 1-Benzyl-N,4-dimethyl-3-(1-methyl-1H-pyrazol-4-yl)-N-neopentyl-5-(trifluoromethyl)-1H-pyrrole-2-carboxamide] yielded an inhibition at 3 µM greater than 95%. In the case of COc1cnc(-c2c(C)c(C(F)(F)F)n(Cc3ccccc3)c2C(=O)N2CCOCC2)cn1 [Example 05, (1-Benzyl-3-(5-methoxypyrazin-2-yl)-4-methyl-5-(trifluoromethyl)-1H-pyrrol-2-yl)(morpholino)methanone], the inhibition at 3 µM is reported as 40 to 75%. Work on COc1ccc(-c2c(C)c(C(F)(F)F)n(Cc3ccccc3)c2C(=O)N2CCOCC2)cn1 [Example 06, (1-Benzyl-3-(6-methoxypyridin-3-yl)-4-methyl-5-(trifluoromethyl)-1H-pyrrol-2-yl)(morpholino)methanone] yielded an inhibition at 3 µM of 75 to 95%. With Cc1c(-c2cnn(C)c2)c(C(=O)N2CCOCC2)n(Cc2ccccc2)c1C(F)(F)F [Example 08, (1-Benzyl-4-methyl-3-(1-methyl-1H-pyrazol-4-yl)-5-(trifluoromethyl)-1H-pyrrol-2-yl)(morpholino)methanone] the inhibition at 3 µM was 40 to 75%. Work on Cc1c(-c2cn[nH]c2)c(C(=O)N(C)CC(C)(C)C)n(Cc2ccccc2)c1C(F)(F)F [Example 09, 1-Benzyl-N,4-dimethyl-N-neopentyl-3-(1H-pyrazol-4-yl)-5-(trifluoromethyl)-1H-pyrrole-2-carboxamide] yielded an inhibition at 3 µM of 75 to 95%. Molecule Cc1c(-c2cn[nH]c2)c(C(=O)N2CCOCC2)n(Cc2ccccc2)c1C(F)(F)F [Example 10, (1-Benzyl-4-methyl-3-(1H-pyrazol-4-yl)-5-(trifluoromethyl)-1H-pyrrol-2-yl)(morpholino)methanone] has an inhibition at 3 µM of 40 to 75%. Molecule Cc1c(-c2cncnc2)c(C(=O)N(C)CC(C)(C)C)n(Cc2ccccc2)c1C(F)(F)F [Example 11, 1-Benzyl-N-(2,2-dimethyl-propyl)-N,4-dimethyl-3-pyrimidin-5-yl-5-(trifluoromethyl)-1H-pyrrole-2-carboxylic acid amide] has an inhibition at 3 µM of 75 to 95%. Work on COc1ncc(-c2c(C)c(C(F)(F)F)n(Cc3ccccc3)c2C(=O)N(C)CC(C)(C)C)cn1 [Example 12, 1-Benzyl-N-(2,2-dimethyl-propyl)-3-(2-methoxy-pyrimidin-5-yl)-N,4-dimethyl-5-(trifluoromethyl)-1H-pyrrole-2-carboxylic acid amide] yielded an inhibition at 3 µM of 75 to 95%. Cc1c(-c2ccc(Cl)s2)c(C(=O)N(C)CC(C)(C)C)n(Cc2ccccc2)c1C(F)(F)F [Example 13, 1-Benzyl-3-(5-chloro-thiophen-2-yl)-N-(2,2-dimethyl-propyl)-N,4-dimethyl-5-(trifluoromethyl)-1H-pyrrole-2-carboxylic acid amide] showed an inhibition at 3 µM of 75 to 95%. COc1ncc(-c2c(C)c(C(F)(F)F)n(Cc3ccccc3)c2C(=O)N2CCOCC2)cn1 [Example 14, [1-Benzyl-3-(2-methoxy-pyrimidin-5-yl)-4-methyl-5-(trifluoromethyl)-1H-pyrrol-2-yl]-morpholin-4-yl-methanone] showed an inhibition at 3 µM of 40 to 75%. Cc1c(-c2cncnc2)c(C(=O)N2CCOCC2)n(Cc2ccccc2)c1C(F)(F)F [Example 15, [1-Benzyl-4-methyl-3-pyrimidin-5-yl-5-(trifluoromethyl)-1H-pyrrol-2-yl]-morpholin-4-yl-methanone] showed an inhibition at 3 µM of 40 to 75%. With Cc1noc(C)c1-c1c(C)c(C(F)(F)F)n(Cc2ccccc2)c1C(=O)N(C)CC(C)(C)C [Example 16, 1-Benzyl-3-(3,5-dimethyl-isoxazol-4-yl)-N-(2,2-dimethyl-propyl)-N,4-dimethyl-5-(trifluoromethyl)-1H-pyrrole-2-carboxylic acid amide] the inhibition at 3 µM was 75 to 95%. Cc1c(-c2ncc(C(F)(F)F)cc2F)c(C(=O)N(C)CC(C)(C)C)n(Cc2ccccc2)c1C(F)(F)F [Example 17, 1-Benzyl-N-(2,2-dimethyl-propyl)-3-[3-fluoro-5-(trifluoromethyl)-pyridin-2-yl]-N,4-dimethyl-5-(trifluoromethyl)-1H-pyrrole-2-carboxylic acid amide] gave an inhibition at 3 µM of 75 to 95%. Cc1c(-c2ncc(Cl)cn2)c(C(=O)N(C)CC(C)(C)C)n(Cc2ccccc2)c1C(F)(F)F [Example 18, 1-Benzyl-3-(5-chloro-pyrimidin-2-yl)-N-(2,2-dimethyl-propyl)-N,4-dimethyl-5-(trifluoromethyl)-1H-pyrrole-2-carboxylic acid amide] was tested, and the inhibition at 3 µM was greater than 95%. In the case of Cc1cc(C#N)ncc1-c1c(C)c(C(F)(F)F)n(Cc2ccccc2)c1C(=O)N(C)CC(C)(C)C [Example 19, 1-Benzyl-3-(6-cyano-4-methylpyridin-3-yl)-N,4-dimethyl-N-neopentyl-5-(trifluoromethyl)-1H-pyrrole-2-carboxamide], the inhibition at 3 µM is reported as 75 to 95%. In the case of Cc1cc(Cl)ncc1-c1c(C)c(C(F)(F)F)n(Cc2ccccc2)c1C(=O)N(C)CC(C)(C)C [Example 20, 1-Benzyl-3-(6-chloro-4-methyl-pyridin-3-yl)-N-(2,2-dimethyl-propyl)-N,4-dimethyl-5-(trifluoromethyl)-1H-pyrrole-2-carboxylic acid amide], the inhibition at 3 µM is reported as 75 to 95%. COc1cc(C)c(-c2c(C)c(C(F)(F)F)n(Cc3ccccc3)c2C(=O)N(C)CC(C)(C)C)cn1 [Example 21, 1-Benzyl-N-(2,2-dimethyl-propyl)-3-(6-methoxy-4-methyl-pyridin-3-yl)-N,4-dimethyl-5-(trifluoromethyl)-1H-pyrrole-2-carboxylic acid amide] was tested, and the inhibition at 3 µM was 75 to 95%. Cc1c(-c2ccc(Cl)nn2)c(C(=O)N(C)CC(C)(C)C)n(Cc2ccccc2)c1C(F)(F)F [Example 22, 1-Benzyl-3-(6-chloro-pyridazin-3-yl)-N-(2,2-dimethyl-propyl)-N,4-dimethyl-5-(trifluoromethyl)-1H-pyrrole-2-carboxylic acid amide] gave an inhibition at 3 µM greater than 95%. Cc1noc(C)c1-c1c(C)c(C(F)(F)F)n(Cc2ccccc2)c1C(=O)N1CCOCC1 [Example 23, [1-Benzyl-3-(3,5-dimethyl-isoxazol-4-yl)-4-methyl-5-(trifluoromethyl)-1H-pyrrol-2-yl]-morpholin-4-yl-methanone] showed an inhibition at 3 µM of 75 to 95%. Cc1c(-c2ncc(C(F)(F)F)cc2F)c(C(=O)N2CCOCC2)n(Cc2ccccc2)c1C(F)(F)F [Example 24, [1-Benzyl-3-[3-fluoro-5-(trifluoromethyl)-pyridin-2-yl]-4-methyl-5-(trifluoromethyl)-1H-pyrrol-2-yl]-morpholin-4-yl-methanone] gave an inhibition at 3 µM greater than 95%.
